Values of other authors as cited in US20060099230A1, “Novel formulations of eprosartan with enhanced bioavailability” (priority 2004, published 2006).
Where a name gives a salt, the structure may show the parent alone.

Conditions: for bioavailability (mean absolute / oral): conventional formulation, dose not stated

| effect of food on absorption (administered with food) | accumulation (chronic use) | absolute bioavailability (following a 300 mg oral dose) | bioavailability (mean absolute / oral) [%] | dose proportionality of plasma concentrations (over the 100 mg to 800 mg dose range) | Structure (SMILES) |
| --- | --- | --- | --- | --- | --- |
| delays absorption | does not significantly accumulate | approximately 13% | 13 | slightly less than dose-proportional | CCCCc1ncc(/C=C(\Cc2cccs2)C(=O)O)n1Cc1ccc(C(=O)O)cc1 [eprosartan, (E)-α-[2-n-butyl-1-[(4-carboxyphenyl)methyl]-1H-imidazol-5-yl]methylene-2-thiophenepropionic acid] |
|  |  |  | 13 |  | CCCCc1ncc(/C=C(\Cc2cccs2)C(=O)O)n1Cc1ccc(C(=O)O)cc1 [eprosartan mesylate] |
